# Reference: patent US9089586B2, “Levocarrimycin, pharmaceutical compositions, preparation methods and uses thereof” (SHENYANG TONGLIAN GROUP CO., LTD., priority 2010, dated 2015)
# Tests used:
# [1] = tested on: urea plasma urealyticum (Uu); assay: In vitro anti-urea plasma urealyticum MIC in U-PPLO; type: cell-based
# Method: 1. Test method: add U-PPLO 0.8 ml in sterile 12-pore cell culture plate (add 0.9 ml in bacteria liquid control pore and 1.0 ml in culture medium control pores).
# 3. Divide into 3 groups (100 μg/ml, 10 μg/ml and 1 μg/ml antibiotic stocksolution), Add experimental antibiotics (levocarrimycin in example 6 of the present invention, acetyl spiramycin, erythrocin and azithromycin) in each experimental pores with sterile Tip according to double degradation concentration gradient: 100 μl, 50 μl, 25 μl and 12.5 μl.
# 4. Blend the above pores evenly, seal the culture plate with an adhesive tape and then culture in 37° C. incubator.
# 5. Abserve and record the growth of Uu on 17-24 h after the test.
# Staphylococcus aureus12 = assay: In vivo pharmacodynamic: mice abdominal cavity infected, half protective dose; details: 168 h; mice infected with Staphylococcus aureus12, challenging dose 4.8 × 10^4 CFU/0.5 ml/mouse, intragastric administration, fatality within seven days
# Method: (§1) Test method: infectious bacteria liquid preparation: put the bacteria liquid stored in the −80° C. refrigerator into the room for about 1 h at room temperature, and respectively draw 0.1 ml bacteria liquid of streptococcus pneumonia, streptococcus pyogenes and enterococcus into 2 ml MH soup (add 10% inactivated horse serum); inoculate the 2 ml MH soup with 0.1 ml bacteria liquid of staphylococcus aureus according to the above method, place the liquid into 37° C. incubator for 18 h to get the original bacteria liquid, dilute the original bacteria liquid with 5% gastric mucin, take 100% lethal bacteria amount if animal gets infected as infectious bacteria liquid.
# (§2) Oral administration is planned for clinical medication of levocarrimycin, thus intragastric administration is selected for levocarrimycin test. After intraperitoneal injection of 0.5 ml lethal bacterial amount to the mice' abdominal cavity, the mice appear following symptom, such as reduced activity, repose, hair became loose, and so on. Clyster with 0.2 ml for every mouse after infection 0.5-6 h, there is no adverse reaction. Observe animal fatality within seven days and calculate the half protective dose (EDO of drugs for infected mice and compare the protective effect of drugs througe Bliss order.
# Staphylococcus aureus16 [2] = assay: as above; details: 168 h; mice infected with Staphylococcus aureus16, challenging dose 5.2 × 10^3 CFU/0.5 ml/mouse, intragastric administration, fatality within seven days
# Method: as §1, §2
# [3] = tested on: Streptococcus pneumonia57; assay: as above; details: 168 h; mice infected with Streptococcus pneumonia57, challenging dose 8.8 × 10^4 CFU/0.5 ml/mouse, intragastric administration, fatality within seven days
# Method: as §1, §2
# [4] = tested on: Streptococcus pyogenes119; assay: as above; details: 168 h; mice infected with Streptococcus pyogenes119, challenging dose 4.9 × 10^4 CFU/0.5 ml/mouse, intragastric administration, fatality within seven days
# Method: as §1, §2
# Gonococcus (10) = assay: In vitro pharmacodynamics, clinical isolates, two-fold plate dilution; type: cell-based; details: 10 clinical isolates of Gonococcus
# [5] = tested on: chlamydia trachomatis serotype B/TW-5/OT; assay: In vitro anti-chlamydia MIC, McCoy cells, immunofluorescent staining of inclusions; type: cell-based; details: Chlamydia trachomatis B/TW-5/OT in McCoy cells, 48 h
# Streptococcus pneumonia3 = assay: MIC against the infecting test organism (Table 3); type: cell-based, Streptococcus pneumonia
# [6] = tested on: Streptococcus pyogenes772; assay: MIC against the infecting test organism (Table 3); type: cell-based, Streptococcus pyogenes
# Staphylococcus aureus76 = assay: MIC against the infecting test organism (Table 4); type: cell-based, Staphylococcus aureus
# [7] = tested on: Streptococcus pneumonia57; assay: MIC against the infecting test organism (Table 3); type: cell-based, Streptococcus pneumonia
# Enterococcus32 = assay: MIC against the infecting test organism (Table 4); type: cell-based, Enterococcus
# [8] = tested on: Streptococcus pyogenes119; assay: MIC against the infecting test organism (Table 3); type: cell-based, Streptococcus pyogenes
# [9] = tested on: chlamydia pneumoniae CWL-029; assay: In vitro anti-chlamydia MIC, HEp-2 cells, immunofluorescent staining of inclusions; type: cell-based; details: Chlamydia pneumoniae CWL-029 in HEp-2 cells, 72 h
# [10] = tested on: Streptococcus pyogenes102; assay: MIC against the infecting test organism (Table 3); type: cell-based, Streptococcus pyogenes
# Staphylococcus aureus16 [11] = assay: MIC against the infecting test organism (Table 4); type: cell-based, Staphylococcus aureus
# [12] = tested on: chlamydia trachomatis serotype D/UW-3/Cx; assay: In vitro anti-chlamydia MIC, McCoy cells, immunofluorescent staining of inclusions; type: cell-based; details: Chlamydia trachomatis D/UW-3/Cx in McCoy cells, 48 h
Compound,"MIC ([1]; final MIC (24 h), determined 4 times, 10^3 CCU/ml, read-out: MIC of anti-urea plasma urealyticum strains)",ED50 (Staphylococcus aureus12),ED50 (Staphylococcus aureus16 [2]),ED50 [3],ED50 [4],MIC (Gonococcus (10)),anti-Uu function ([1]; verbal comparison of the four antibiotics),Minimal inhibitory concentration (MIC) [5],MIC (Streptococcus pneumonia3),MIC [6],MIC (Staphylococcus aureus76),MIC [7],"MIC of anti-urea plasma urealyticum strains ([1]; final MIC (24 h), determined 4 times, 10^3 CCU/ml)",MIC (Enterococcus32),MIC [8],Minimal inhibitory concentration (MIC) [9],MIC [10],MIC (Staphylococcus aureus16 [11]),MIC scope (Gonococcus (10)),Minimal inhibitory concentration (MIC) [12]
CC[C@H]1OC(=O)[C@H](C)[C@@H](O[C@H]2C[C@@](C)(OC)[C@@H](O)[C@H](C)O2)[C@H](C)[C@@H](O[C@@H]2O[C@H](C)C[C@H](N(C)C)[C@H]2O)[C@](C)(O)C[C@@H](C)CN(C)[C@H](C)[C@@H](O)[C@]1(C)O [Azithromycin],0.025 to 0.125 µg/mL,217 mg/kg,75.8 mg/kg,19.7 mg/kg,99 mg/kg,0.12 to 64 µg/mL,,,,,,,,,,,,,,
CC[C@H]1OC(=O)[C@H](C)[C@@H](O[C@H]2C[C@@](C)(OC)[C@@H](O)[C@H](C)O2)[C@H](C)[C@@H](O[C@@H]2O[C@H](C)C[C@H](N(C)C)[C@H]2O)[C@](C)(O)C[C@@H](C)C(=O)[C@H](C)[C@@H](O)[C@]1(C)O [Erythrocin],,,,,,0.12 to 64 µg/mL,the worst,,,,,,,,,,,,,
Acetyl spiramycin,,,,,,,,4 µg/mL,0.5 µg/mL,0.25 µg/mL,1 µg/mL,1 µg/mL,0.5 µg/mL,1 µg/mL,0.5 µg/mL,0.5 µg/mL,0.5 µg/mL,1 µg/mL,0.12 to 64 µg/mL,2 µg/mL
